Data from patent US20040115245A1, “Autoinducer compounds and their uses” (priority 2001, published 2004).
“Also recorded” adds a separate entry of the source.

Legend:
cultures of rumen fluid = assay: In vitro digestion of grass silage by cultures of rumen fluid; type: cell-based, cow; details: OHHL 0, 200, 500 and 1000 nanomoles final in rumen fluid, 37° C., 10 hours, triplicate
Text: Autoinducer compounds such as acyl homoserine lactones can have significant effects on cultures of bacteria. For example, they may be used to induce expression of antibiotics and extracellular enzymes. […] is the signal molecule for antibiotic production in Chromobacterium violaceum; butanoyl homoserine lactone triggers various phenotypes in Pseudomonas aeruginosa including the production of various enzymes and lectins. OHHL is known to have different effects on different species. For example, in Erwinia stewartii it induces production of exopolysaccharides, while in Vibrio species it promotes bioluminescence. Thus, in a complex mixed culture comprising many species including ruminobacter sp., prevotella sp., ruminococcus sp., it is hard to predict the specific phenotypes that will be induced by even the introduction of just one autoinducer compound. However. the global effect on rumen mixed culture fermentation can be measured in terms of the efficiency of digestion of forage. […] A control sample treated with water and four test samples treated with using nanomolar concentrations of OHHL are examined.
Rumen fluid was collected from a healthy fistulated grass fed cow and immediately dispensed into 75 ml bottles. These bottles were kept at 37° C. […]

broiler chickens = assay: Growth performance and mortality of broiler chickens raised in floor pens; type: in vivo, broiler chickens (Cobb×Cobb); details: for Feed Conversion, Day 21-35: grower period; for Daily Feed intake, Day 0-21 / Daily Feed intake, Day 0-35 / Daily Feed intake, Day 21-35: per bird
Description: This experiment examined the effect of N-(3-oxohexanoyl)-L-homoserine lactone (OHHL) (CAS #: 143537626, molecular formula : C10H15NO4, molecular weight: 213) on the growth performance and mortality of broiler chickens.
A stock solution of 1 mM OHHL (0.213 g/L) was prepared as follows. Approximately 50% of the required volume of distilled water was warmed to approximately 30-40° C. and used to dissolve the required amount of OHHL powder. The solution was made up to volume using distilled water stored at room temperature. OHHL solution (0.213 g/L) was applied to treated crumbled feed at a rate of 3 kg per tonne. Control feed was treated with distilled water at a rate of 3 kg per tonne. The OHHL solution was stored for less than 2 days prior to application to feed.
The antibiotic BMD®110 was used as a positive control in this study. The active ingredient is bacitracin methylene disalicyclate. The product contains 110 g of bacitracin activity per kg and is approved for prevention of necrotic enteritis in broiler chickens when given at a dose of 55 ppm in feed (500 g BMD®110/tonne feed).
Coxistac® 6% premix was used as an ionophore in all study diets as an aid in the prevention of coccidiosis. The product contained 60 g salinomycin per kg and was administered at a dose of 60 ppm in feed (1 kg Coxistac® 6% premix per tonne feed).
The experiment lasted 35 days with the day of placement of broiler chicks considered as day zero. A total of 1,200 male day-old broiler chickens (Cobb×Cobb) were assigned to treatment on day 0. Birds were vaccinated for Marek's disease at the hatchery. Twenty-four pens, each providing 45 square feet of floor space, were assigned to treatment groups. […] Adjacent pens were separated by a solid 12-inch high plastic barrier at bird level. A welded wire fence with 1-inch square openings was located on top of all barriers. Each pen was permanently identified by number and contained 50 birds on day zero. Each pen contained four nipple-type drinkers which provided clean drinking water ad libitum. Dry feed was provided ad libitum in tube-type feeders (one per pen) of 20 kg capacity.
The barn was heated by five natural gas heaters which were equally spaced and positioned to warm incoming air at the north wall of the building. Air was exhausted by fans located on the south-facing wall of the building. Lighting program, barn temperature, and other management practices were typical of commercial broiler chicken producers in North America. Birds that were moribund and unable to reach food or water were culled and euthanised by carbon dioxide gas.
Bodyweight, pen number and date of death were recorded for each bird that was culled or found dead. Mortalities were submitted to the pathologist to determine the apparent cause of death.
A randomised complete block design was used to study the main and interactive-effects of OHHL (0 and 0.639 g/tonne) and dietary antibiotic ([…]) in a 2×2 factorial arrangement. Dietary treatments were as follows:
There were four pens per block and six replicate blocks for a total of 24 pens.
The feeding program was used in the study used a starter feed type on days 0 to 20 and a grower feed type on days 21 to 35. Diet formulation was representative of commercial diets in North America.
A starter diets using a basal mix of starter diet containing either 0 or 55 ppm BMD was manufactured, pelleted, and crumbled. Bagged starter feed was treated with either distilled water (0 g OHHL per L) or OHHL solution (0.213 g OHHL per L) using a horizontal double ribbon mixer of 100 kg capacity. Distilled water or OHHL solution (0.213 g per L) were applied to crumbled feed at a rate of 3 kg per tonne feed. Grower diets were manufactured as described above for starters.
The data collected consisted of:
1. Bodyweight on days 0, 21, and 35.
2. Amounts of each feed (starter and grower) consumed.
3. Bodyweight and date of death for birds which were culled or died.
4. […]

sheep = assay: Rumen dry matter disappearance of corn silage in cannulated sheep (in situ bags); type: in vivo; set-up: dry matter disappearance, OHHL − Control, Mean / dry matter disappearance, OHHL − Control, 4 Hours / dry matter disappearance, OHHL − Control, 8 Hours / dry matter disappearance, OHHL − Control, 12 Hours / dry matter disappearance, OHHL − Control, 24 Hours: concentration or dose not given beside the values
Description: This experiment examined the effect of N-(3-oxohexanoyl)-L-homoserine lactone (OHHL) (CAS#: 143537626, molecular formula : C10H15NO4, molecular weight: 213) on rumen dry matter disappearance in vivo in sheep.
A stock solution of OHHL (0.639 gram/L) was prepared as follows. Approximately 50% of the required volume of distilled water was warmed to approximately 30-40° C. and used to dissolve the required amount of OHHL powder. The volumetric flask was made up to volume using distilled water stored at room temperature. OHHL solution was applied to pelleted sheep ration at a rate of 3 kg per tonne of feed. Control feed was treated with 3 kg of distilled water per tonne.
Initial attempts to administer OHHL by application of an aqueous solution to the outside of pelleted feed were modified as the sheep decreased intake of treated feed after a few days. Instead, OHHL was administered as an oral drench twice daily commencing on the afternoon of Day 11 of each period.
A restricted quantity of pelleted ration was provided at a rate of approximately 0.5 kg/day (0.25 kg in the a.m. and 0.25 kg in the p.m.). Access to hay was restricted as needed to help ensure that sheep ration was consumed.
On Days 12 and 13, pelleted ration (0.25 kg/animal) was issued to animals approximately 1 hour prior to introduction of bags into the rumen and again following removal of the 8-hour bag from each animal.
One fresh sample of corn silage was dried to constant weight and allowed to cool to room temperature. A representative sub-sample was taken for dry matter determination. The sample was ground to pass a 1 mm screen, mixed and sampled for dry matter assay. The remaining sample was stored for in situ determination of dry matter disappearance from the rumen of cannulated sheep.
Ankom rumen sampling bags were used in the study. Each bag was approximately 5 cm×10 cm, suitable for a one-gram sample. Pore size was 53±10 microns. Dried, ground corn silage was weighed (1.00±0.01 grams) into bags and sealed. A set of four bags was prepared per animal per day and these were attached to a string to facilitate placement in and removal from the rumen. A fifth bag served as a blank for each set of four bags. The blank was not placed in the rumen but was washed, processed and dried.
A rumen cannula was surgically placed in each of five mature (approximately 3-year old) ewes. Following recovery from surgery, four of these animals were selected for use in the study. The fifth animal served as a reserve for use in the event of post-surgical complications in a study animal.
Dry matter disappearance was measured by removing bags from the rumen at 4, 8, 12 and 24 hours and washed under cold running tap water together with a corresponding blank bag. Bags were then dried to constant weight. Measurement of dry matter disappearance was completed for each animal commencing on the morning of Day 12 and Day 13 of each period.
A Latin Square Design was used to study the effects of two treatments:
A, Control: 0 gram OHHL per tonne ration.
B: Treated with the equivalent of 1.917 gram OHHL per tonne ration.
Each period was of 14 days duration. A total of four study animals were blocked based on bodyweight (2 blocks). Animals within block were randomly assigned to Sequence 1 or 2:
Data were analysed by a multiple regression analysis that included effects of treatment, animal, period, study day and hour.

[1] = individual treatment mean (2×2 factorial cell)
[2] = individual treatment mean (2×2 factorial cell), OHHL 0.639 g/tonne feed, BMD 110 500 g/tonne
[3] = main-effect mean pooled over the other factor

CCCC(=O)CC(=O)N[C@H]1CCOC1=O [OHHL, N-(3-oxohexanoyl)-L-homoserine lactone]
mean percentage loss of weight of grass silage (cultures of rumen fluid): increased the mean percentage loss of weight
adverse effects on bird health / survival (broiler chickens; continuous administration in feed for 35 days, necropsy of all mortalities): no evidence of any adverse effect; also recorded: did not have an adverse effect on bird survival
Mortality, Day 0-21 (broiler chickens; [1]): 1.0%
Mortality, Day 0-35 (broiler chickens; [1]): 1.7%
Mortality, Day 21-35 (broiler chickens; [1]): 0.7%
Average bodyweight, Day 21 (broiler chickens; [2]): 0.796 kg
Average bodyweight, Day 35 (broiler chickens; [2]): 1.934 kg
Feed Conversion, Day 21-35 (broiler chickens; [1]): 1.812
Feed Conversion, Day 0-35 (broiler chickens; individual treatment mean (2×2 factorial cell), overall period): 1.629
Daily Feed intake, Day 0-21 (broiler chickens; [1]): 0.049
Daily Feed intake, Day 0-35 (broiler chickens; [1]): 0.088
Daily Feed intake, Day 21-35 (broiler chickens; [1]): 0.147
Feed Conversion, Day 0-21 (broiler chickens; individual treatment mean (2×2 factorial cell), starter period): 1.357
Mortality, Day 0-21 (broiler chickens; [3]): 1.3%
Mortality, Day 0-35 (broiler chickens; [3]): 2.2%
Mortality, Day 21-35 (broiler chickens; [3]): 0.8%
Average bodyweight, Day 35 (broiler chickens; main-effect mean pooled over the other factor, OHHL 0.639 g/tonne feed, BMD 110 500 g/tonne): 1.937 kg
Feed Conversion, Day 21-35 (broiler chickens; [3]): 1.794
Daily Feed intake, Day 0-21 (broiler chickens; [3]): 0.048
Daily Feed intake, Day 0-35 (broiler chickens; [3]): 0.087
Daily Feed intake, Day 21-35 (broiler chickens; [3]): 0.147
dry matter disappearance, 4 Hours (sheep; corn silage in rumen bags, 4 h incubation, OHHL equivalent to 1.917 gram per tonne ration, oral drench twice daily): 53.0%
dry matter disappearance, 8 Hours (sheep; corn silage in rumen bags, 8 h incubation, OHHL equivalent to 1.917 gram per tonne ration): 57.8%
dry matter disappearance, 12 Hours (sheep; corn silage in rumen bags, 12 h incubation, OHHL equivalent to 1.917 gram per tonne ration): 65.7%
dry matter disappearance, 24 Hours (sheep; corn silage in rumen bags, 24 h incubation, OHHL equivalent to 1.917 gram per tonne ration): 74.5%
dry matter disappearance, OHHL − Control, 4 Hours (sheep; difference to control, 4 h): 4.16%
dry matter disappearance, OHHL − Control, 8 Hours (sheep; difference to control, 8 h): −0.60%
dry matter disappearance, OHHL − Control, 12 Hours (sheep; difference to control, 12 h): 3.36%
dry matter disappearance, OHHL − Control, 24 Hours (sheep; difference to control, 24 h): 0.15%
dry matter disappearance, OHHL − Control, Mean (sheep; difference to control, mean of all times (percentage units; P=0.105)): 1.77%
dry matter disappearance, Mean (sheep; mean over 4, 8, 12, 24 h): 62.7%
